Test results reported in paper PMC5618792, “Dynamic multicolor protein labeling in living cells” (Chemical Science, 2017).

How the values were obtained:
FAST [1] = molecular target: T1, FAST (Halorhodospira halophila, UniProt P16113, C69G/D97P/F96I/M100R/Q99S/T101G/T95M/Y94W/Y98T); test: Affinity constants by spectrofluorometric titration of FAST with fluorogen; type: binding
T1 construct: His-tag; made in house; host or cells: Rosetta(DE3)pLysS E. coli
Method: (§1) The UV/Vis absorption spectra were recorded with 1 cm × 1 cm quartz cuvettes (Hellma) on a diode array UV/Vis spectrophotometer (Evolution array, Thermo Scientific). The corrected fluorescence spectra upon one-photon excitation were recorded with a Photon Technology International QuantaMaster QM-1 spectrofluorimeter (PTI, Monmouth Junction, NJ) equipped with a Peltier cell holder (TLC50, Quantum Northwest, Shoreline, WA). The overall emission quantum yields after one-photon excitation φ were determined as previously described.[14]

FAST [2] = molecular target: T1, FAST; test: Spectroscopic properties of FAST:fluorogen complexes in PBS pH 7.4 (absorption, emission, quantum yield); type: physicochemical; conditions: for Brightness = ε × φ / ε, molar absorption coefficient at λ abs / φ, fluorescence quantum yield / λ abs, wavelength of maximal absorption / λ em, wavelength of maximal emission / F bound/F unbound, fluorescence activation upon FAST binding / Δλ abs = λ abs,bound – λ abs,unbound, absorption red-shift upon FAST binding: PBS pH 7.4
Method: as §1

[3] = Physico-chemical properties of free fluorogens in aqueous solutions; type: physicochemical; conditions: free fluorogen; for pKa: aqueous solution, read-out: pKA, acidity constant
Method: as §1, with “pH measurements were performed on a standard pH meter PHM210 Radiometer Analytical (calibrated with aqueous buffers at pH 4 and 7 or 10) with a Crison 5208 Electrode (Barcelona, Spain). The UV/Vis” for “The UV/Vis”
HBR-3,5DOM in aqueous solutions. Abbreviations are as follows : pKA, acidity constant ;
λabs,neutral, wavelength of maximal absorption of the protonated state; λabs,anionic, wavelength of
maximal absorption of the anionic state.
Fluorogen pKA λabs,neutral (nm) λabs,anionic (nm)

HeLa cells = test: LIVE/DEAD viability/cytotoxicity assay; type: cell-based; conditions: 5 µM, 24 h, calceinAM and EthD1
Method: The HeLa cells were treated with DMEM media containing the fluorogens at the indicated concentrations for the indicated times. The cell viability was evaluated by fluorescence microscopy using the LIVE/DEAD® viability/cytotoxicity assay kit (Molecular Probes, Life Technologies) following the manufacturer’s protocol.
Figure S2. Viability assay of HeLa cells incubated for 24 h with solutions of HBR-3,5DM, HBR-3OM and HBR-3,5DOM at 5 µM. Cell viability was tested by using calceinAM and EthD1 (LIVE/DEAD® viability/cytotoxicity assay kit). CalceinAM is a cell-permeant profluorophore cleaved by intracellular esterases releasing the green fluorescent polyanionic calcein in live cells. EthD1 (Ethidium homodimer 1) is a non cell-permeant nucleic acid red fluorescent stain that enters only cells with damaged membranes and undergoes a fluorescence enhancement upon binding to nucleic acids, thereby producing a bright red fluorescence in dead cells. Control experiments with HeLa cells non-incubated with dye (A) or incubated for 30 min with 1% hydrogen peroxyde (B) are shown. Cell fluorescence was evaluated by confocal microscopy.
3OM and HBR-3,5DOM are non-toxic for HeLa cells at the concentrations used for imaging.
(1 picture or pasted object on this page, not shown here)

[4] = FAST:fluorogen complex, listed as FAST:HBR-2,5DM
[5] = FAST:fluorogen complex, listed as FAST:HBR-3,5DM
[6] = FAST:fluorogen complex, listed as FAST:HBR-3OE
[7] = FAST:fluorogen complex, listed as FAST:HBR-3OM

T1 sequence (P16113 whole entry C69G/Y94W/T95M/F96I/D97P/Y98T/Q99S/M100R/T101G): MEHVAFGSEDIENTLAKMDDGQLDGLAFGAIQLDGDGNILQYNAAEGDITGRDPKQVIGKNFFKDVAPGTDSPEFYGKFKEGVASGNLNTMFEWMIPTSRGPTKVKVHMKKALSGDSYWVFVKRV

SMILES: Cc1cc(/C=C2\SC(=S)NC2=O)c(C)cc1O [HBR-2,5DM, (Z)-5-(4-Hydroxy-2,5-dimethylbenzylidene)-2-thioxo-1,3-thiazolidin-4-one]
- Kd (FAST [1]): 8 nM
- red-shifted absorption relative to FAST:HMBR (FAST [2]; FAST:fluorogen complex): 15–20 nm
- red-shifted emission relative to FAST:HMBR (FAST [2]; FAST:fluorogen complex): 10–20 nm
- Brightness = ε × φ (FAST [2]; FAST:fluorogen complex): 14 500
- ε, molar absorption coefficient at λ abs (FAST [2]; FAST:fluorogen complex): 50 mM^–1 cm^–1
- φ, fluorescence quantum yield (FAST [2]; FAST:fluorogen complex): 29%
- λ abs, wavelength of maximal absorption (FAST [2]; [4]): 494 nm
- λ em, wavelength of maximal emission (FAST [2]; [4]): 552 nm
- F bound/F unbound, fluorescence activation upon FAST binding (FAST [2]): 430
- Δλ abs = λ abs,bound – λ abs,unbound, absorption red-shift upon FAST binding (FAST [2]): 88 nm
- pKa [3]: 8.7
- λabs,anionic, wavelength of maximal absorption of the anionic state [3]: 472 nm
- λabs,neutral, wavelength of maximal absorption of the protonated state [3]: 406 nm

SMILES: Cc1cc(/C=C2\SC(=S)NC2=O)cc(C)c1O [HBR-3,5DM, (Z)-5-(4-Hydroxy-3,5-dimethylbenzylidene)-2-thioxothiazolidin-4-one]
- Kd (FAST [1]): 80 nM
- red-shifted absorption relative to FAST:HMBR (FAST [2]; FAST:fluorogen complex): 15–20 nm
- red-shifted emission relative to FAST:HMBR (FAST [2]; FAST:fluorogen complex): 10–20 nm
- Brightness = ε × φ (FAST [2]; FAST:fluorogen complex): 23 500
- ε, molar absorption coefficient at λ abs (FAST [2]; FAST:fluorogen complex): 48 mM^–1 cm^–1
- φ, fluorescence quantum yield (FAST [2]; FAST:fluorogen complex): 49%
- λ abs, wavelength of maximal absorption (FAST [2]; [5]): 499 nm
- λ em, wavelength of maximal emission (FAST [2]; [5]): 562 nm
- F bound/F unbound, fluorescence activation upon FAST binding (FAST [2]): 660
- Δλ abs = λ abs,bound – λ abs,unbound, absorption red-shift upon FAST binding (FAST [2]): 98 nm
- overall brightness relative to the original FAST:HMBR complex (FAST [2]; higher than FAST:HMBR): 2.5 fold
- pKa [3]: 8.7
- λabs,anionic, wavelength of maximal absorption of the anionic state [3]: 473 nm
- λabs,neutral, wavelength of maximal absorption of the protonated state [3]: 401 nm
- toxicity for HeLa cells (cell viability) (HeLa cells): non-toxic

SMILES: COc1cc(/C=C2\SC(=S)NC2=O)cc(OC)c1O [HBR-3,5DOM, (Z)-5-(4-Hydroxy-3,5-dimethoxybenzylidene)-2-thioxothiazolidin-4-one]
- Stokes shift (FAST [2]; FAST:fluorogen complex): 82 nm
- red-shifted absorption relative to FAST:HMBR (FAST [2]; FAST:fluorogen complex): 40 nm
- red-shifted emission relative to FAST:HMBR (FAST [2]; FAST:fluorogen complex): 60 nm
- Brightness = ε × φ (FAST [2]; FAST:fluorogen complex): 12 000
- ε, molar absorption coefficient at λ abs (FAST [2]; FAST:fluorogen complex): 39 mM^–1 cm^–1
- λ em, wavelength of maximal emission (FAST [2]; FAST:fluorogen complex): 600 nm
- φ, fluorescence quantum yield (FAST [2]; FAST:fluorogen complex): 31%
- F bound/F unbound, fluorescence activation upon FAST binding (FAST [2]): 220
- Δλ abs = λ abs,bound – λ abs,unbound, absorption red-shift upon FAST binding (FAST [2]): 112 nm
- pKa [3]: 8.3
- λabs,anionic, wavelength of maximal absorption of the anionic state [3]: 484 nm
- λabs,neutral, wavelength of maximal absorption of the protonated state [3]: 407 nm
- toxicity for HeLa cells (cell viability) (HeLa cells): non-toxic

SMILES: CCc1cc(/C=C2\SC(=S)NC2=O)ccc1O [HBR-3E, (Z)-5-(3-Ethyl-4-hydroxybenzylidene)-2-thioxothiazolidin-4-one]
- Kd (FAST [1]): 80 nM
- Brightness = ε × φ (FAST [2]; FAST:fluorogen complex): 6500
- ε, molar absorption coefficient at λ abs (FAST [2]; FAST:fluorogen complex): 50 mM^–1 cm^–1
- λ abs, wavelength of maximal absorption (FAST [2]; FAST:fluorogen complex): 481 nm
- λ em, wavelength of maximal emission (FAST [2]; FAST:fluorogen complex): 543 nm
- φ, fluorescence quantum yield (FAST [2]; FAST:fluorogen complex): 13%
- F bound/F unbound, fluorescence activation upon FAST binding (FAST [2]): 300
- Δλ abs = λ abs,bound – λ abs,unbound, absorption red-shift upon FAST binding (FAST [2]): 81 nm

SMILES: CCOc1cc(/C=C2\SC(=S)NC2=O)ccc1O [HBR-3OE, (Z)-5-(3-Ethoxy-4-hydroxybenzylidene)-2-thioxothiazolidin-4-one]
- Kd (FAST [1]): 270 nM
- red-shifted absorption relative to FAST:HMBR (FAST [2]; FAST:fluorogen complex): 15–20 nm
- red-shifted emission relative to FAST:HMBR (FAST [2]; FAST:fluorogen complex): 10–20 nm
- Brightness = ε × φ (FAST [2]; FAST:fluorogen complex): 7000
- ε, molar absorption coefficient at λ abs (FAST [2]; FAST:fluorogen complex): 41 mM^–1 cm^–1
- φ, fluorescence quantum yield (FAST [2]; FAST:fluorogen complex): 17%
- λ abs, wavelength of maximal absorption (FAST [2]; [6]): 497 nm
- λ em, wavelength of maximal emission (FAST [2]; [6]): 562 nm
- F bound/F unbound, fluorescence activation upon FAST binding (FAST [2]): 230
- Δλ abs = λ abs,bound – λ abs,unbound, absorption red-shift upon FAST binding (FAST [2]): 94 nm

SMILES: COc1cc(/C=C2\SC(=S)NC2=O)ccc1O [HBR-3OM, (Z)-5-(4-Hydroxy-3-methoxybenzylidene)-2-thioxo-1,3-thiazolidin-4-one]
- Kd (FAST [1]): 310 nM
- red-shifted absorption relative to FAST:HMBR (FAST [2]; FAST:fluorogen complex): 15–20 nm
- red-shifted emission relative to FAST:HMBR (FAST [2]; FAST:fluorogen complex): 10–20 nm
- Brightness = ε × φ (FAST [2]; FAST:fluorogen complex): 14 400
- ε, molar absorption coefficient at λ abs (FAST [2]; FAST:fluorogen complex): 40 mM^–1 cm^–1
- φ, fluorescence quantum yield (FAST [2]; FAST:fluorogen complex): 36%
- λ abs, wavelength of maximal absorption (FAST [2]; [7]): 494 nm
- λ em, wavelength of maximal emission (FAST [2]; [7]): 561 nm
- F bound/F unbound, fluorescence activation upon FAST binding (FAST [2]): 350
- Δλ abs = λ abs,bound – λ abs,unbound, absorption red-shift upon FAST binding (FAST [2]): 91 nm
- pKa [3]: 8.3
- λabs,anionic, wavelength of maximal absorption of the anionic state [3]: 468 nm
- λabs,neutral, wavelength of maximal absorption of the protonated state [3]: 403 nm
- toxicity for HeLa cells (cell viability) (HeLa cells): non-toxic

SMILES: Cc1cc(C=C2SC(=S)NC2=O)ccc1O [HMBR, 4-hydroxy-3-methylbenzylidene rhodanine, reference compound]
- Brightness = ε × φ (FAST [2]; FAST:fluorogen complex): 10 300
- ε, molar absorption coefficient at λ abs (FAST [2]; FAST:fluorogen complex): 45 mM^–1 cm^–1
- F bound/F unbound, fluorescence activation upon FAST binding (FAST [2]): 300
- pKa [3]: 8.7
- λabs,anionic, wavelength of maximal absorption of the anionic state [3]: 461 nm
- λabs,neutral, wavelength of maximal absorption of the protonated state [3]: 401 nm
